Measurements: the supplement of paper PMC8960247
Where a name gives a salt, the structure may show the parent alone. ± gives the standard error.

Legend:
621-102 (TSC2-deficient) = assay: relative viability vs DMSO; higher = less cytotoxic; details: serum: 10% FBS, 72 h
621-103 (TSC2-rescued) = assay: as above; details: serum: 10% FBS, 72 h
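Further: immortalized renal angiomyolipoma cells stably carrying empty vector or TSC2, dosed in 384-well plates in DMEM, viability normalized to vehicle-treated wells within each plate.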

SMILES | relative viability (621-102 (TSC2-deficient); 0.0001 µM) [%] | relative viability (621-102 (TSC2-deficient); 0.001 µM) [%] | relative viability (621-102 (TSC2-deficient); 0.01 µM) [%] | relative viability (621-102 (TSC2-deficient); 0.1 µM) [%] | relative viability (621-102 (TSC2-deficient); 1 µM) [%] | relative viability (621-102 (TSC2-deficient); 10 µM) [%] | relative viability (621-103 (TSC2-rescued); 0.0001 µM) [%] | relative viability (621-103 (TSC2-rescued); 0.001 µM) [%] | relative viability (621-103 (TSC2-rescued); 0.01 µM) [%] | relative viability (621-103 (TSC2-rescued); 0.1 µM) [%] | relative viability (621-103 (TSC2-rescued); 1 µM) [%] | relative viability (621-103 (TSC2-rescued); 10 µM) [%]
Cc1cc(C(=O)NOCCO)c(Nc2ccc(I)cc2F)n(C)c1=O [AZD8330] | 103 ± 1.4 | 102 ± 2.7 | 99.3 ± 1.3 | 96.05 ± 0.59 | 65.9 ± 1.7 | 58.5 ± 0.66 | 101.1 ± 0.99 | 92.9 ± 1.4 | 93.3 ± 1.4 | 93.1 ± 2.1 | 76.3 ± 0.95 | 68.4 ± 0.99
CCCS(=O)(=O)Nc1ccc(F)c(C(=O)c2c[nH]c3ncc(Cl)cc23)c1F [PLX-4720] | 108 ± 2.7 | 111 ± 4.3 | 107 ± 4.4 | 99.7 ± 4.8 | 101 ± 3.2 | 101 ± 1.9 | 102 ± 2.3 | 100.7 ± 0.75 | 99.2 ± 1.6 | 99.5 ± 1.8 | 99.18 ± 0.44 | 103.4 ± 0.45
CS(=O)(=O)c1ccc(C(=O)Nc2ccc(Cl)c(-c3ccccn3)c2)c(Cl)c1 [GDC-0449 (Vismodegib)] | 103 ± 2.5 | 111.7 ± 0.39 | 111.9 ± 0.39 | 111 ± 2.7 | 116.2 ± 0.59 | 104 ± 1.8 | 100.4 ± 1 | 100 ± 1.6 | 103 ± 1.6 | 102.1 ± 0.15 | 103.2 ± 0.18 | 102 ± 0.43
NC(=O)c1cccc2[nH]c(-c3ccc(C4CCCN4)cc3F)nc12 (stereo not given) | 98.7 ± 1.1 | 103.2 ± 0.25 | 104 ± 4.6 | 99.4 ± 3.5 | 102 ± 4.6 | 93.99 ± 0.45 | 96.5 ± 3.4 | 98.4 ± 1.8 | 102 ± 2.6 | 98.4 ± 4.6 | 103 ± 2.3 | 94 ± 1.4
COC(=O)C1=C(C)NC(C)=C(C(=O)OCCN2CCN(C(c3ccccc3)c3ccccc3)CC2)C1c1cccc([N+](=O)[O-])c1 (stereo not given) [Manidipine HCl (CV-4093)] | 110.7 ± 1 | 110.4 ± 0.56 | 104.3 ± 0.49 | 109 ± 2 | 107 ± 4 | 94.55 ± 0.56 | 90.9 ± 2 | 90 ± 1.3 | 98 ± 1.7 | 100.85 ± 0.1 | 89.9 ± 1.2 | 74.2 ± 1.2
O=c1oc2cc(O)ccc2s1 [Tioxolone] | 103 ± 7.6 | 105.7 ± 0.97 | 105 ± 4 | 94.8 ± 1.4 | 104 ± 2.6 | 99.31 ± 0.92 | 71.1 ± 7.9 | 80 ± 6.3 | 75.42 ± 0.21 | 80.9 ± 4.5 | 71.5 ± 8.5 | 60.9 ± 5
CC(O)(CS(=O)(=O)c1ccc(F)cc1)C(=O)Nc1ccc(C#N)c(C(F)(F)F)c1 (stereo not given) [Bicalutamide (Casodex)] | 126 ± 1.3 | 119 ± 3.4 | 112 ± 1.2 | 102 ± 2.8 | 110.6 ± 0.79 | 112 ± 1.8 | 105.2 ± 0.55 | 102 ± 1.1 | 101.3 ± 0.41 | 102 ± 1.6 | 102.5 ± 0.88 | 102 ± 1.1
Cc1ccc(NC(=O)c2ccc(CN3CCN(C)CC3)cc2)cc1Nc1nccc(-c2cccnc2)n1 [Imatinib (STI571)] | 85.09 ± 0.54 | 107 ± 2.1 | 99 ± 3.4 | 109 ± 3.3 | 108 ± 2.7 | 95.35 ± 0.94 | 94.6 ± 4.2 | 97.664 ± 0.066 | 101 ± 0.77 | 101 ± 2 | 94.4 ± 3.7 | 96.9 ± 4.7
CN1CC[C@H](c2c(O)cc(O)c3c(=O)cc(-c4ccccc4Cl)oc23)[C@H](O)C1 [Flavopiridol HCl] | 103 ± 1.6 | 98.59 ± 0.27 | 93.1 ± 5.7 | 49.2 ± 0.89 | 10.5 ± 0.34 | 10.1 ± 1.1 | 91.4 ± 6.3 | 88 ± 1.4 | 90.7 ± 3.4 | 55.2 ± 0.46 | 13 ± 0.61 | 11 ± 0.25
COc1ccc(C(CN(C)C)C2(O)CCCCC2)cc1 (stereo not given) [Venlafaxine HCl] | 74.8 ± 0.85 | 101 ± 2.7 | 96.3 ± 9.2 | 107 ± 5.2 | 91.33 ± 0.33 | 91.6 ± 2.6 | 85.8 ± 1.9 | 109.5 ± 0.37 | 101 ± 4.2 | 99.6 ± 1.8 | 96.1 ± 5 | 90.61 ± 0.47
